From paper PMC6390583 (BMC rheumatology, 2018) come the findings set out here.

The subject of data set [1] is IL-6 induced STAT3 phosphorylation. Nature of the data set: IL-6 induced STAT3 phosphorylation in TF-1 cells. The data set is classed as cell-based. Particulars: Homo sapiens, JAK 1, read-out: Human IC50, IL-6 pSTAT3. As for the experimental part: (§1) IL-6 and Oncostatin M (OSM) induced STAT3 phosphorylation was assessed in the human erythroleukemia TF-1 cell line. Erythropoietin-induced STAT5 phosphorylation was assessed in the human UT-7 cell line. IL-2 and IL-15 induced STAT5 phosphorylation was assessed in activated human T-cells. Detection of phosphorylated STATs was accomplished with the SureFire pSTAT5 or pSTAT3 Assay kit (Perkin Elmer, Hopkinton, MA) per standard manufacturer’s protocol, with the exception of an overnight incubation following addition of donor beads before detection on the EnVision (Perkin Elmer, Hopkinton, MA). IFNγ induced STAT1 phosphorylation was assessed in the CD14+ monocyte population in human PBMC by flow cytometry. CD14 BV421 was purchased from BD Biosciences (San Jose, CA). STAT1 PE ([…]) was purchased from ThermoFisher Scientific (Waltham, MA). IL-4 and IL-13 induced STAT6 phosphorylation and IL-31 induced STAT3 phosphorylation were assessed in adult human epithelial keratinocytes (HEKa, ThermoFisher Scientific, Waltham, MA) by flow cytometry. STAT6 PE (pY641) and STAT3 PE (Y705) were purchased from BD Biosciences (San Jose, CA).

Data set [2] deals with IL-6 induced pSTAT3, CD14+ whole blood. Nature of the data set: IL-6 signaling in human whole blood, CD14+ monocytic population. The data set is classed as cell-based. Particulars: JAK 1.
For data set [3], the system named is Oncostatin M (OSM) induced STAT3 phosphorylation. As to the kind of experiment: Oncostatin M induced STAT3 phosphorylation in TF-1 cells. The format is cell-based. Particulars: Homo sapiens, JAK 1, N = 2, read-out: Human IC50, OSM pSTAT3. As for the experimental part: as §1
Data set [4] has as its system Erythropoietin-induced STAT5 phosphorylation. Nature of the data set: Erythropoietin-induced STAT5 phosphorylation in UT-7 cells. The format is cell-based. Particulars: Homo sapiens; UT7 cells, JAK 2; read-out: Human IC50, Epo pSTAT5. Here is the method:
as §1

The subject of data set [5] is IL-2 induced STAT5 phosphorylation. Nature of the data set: IL-2 induced STAT5 phosphorylation in activated T-cells. The data set is classed as cell-based. The settings on record: T-blasts, JAK 1/3, read-out: Human IC50, IL-2 pSTAT5. As for the experimental part:
as §1

Data set [6] relates to IL-15 induced STAT5 phosphorylation. As to the kind of experiment: IL-15 induced STAT5 phosphorylation in activated T-cells. The data set is classed as cell-based. The settings on record: Homo sapiens, T-cell; T-blasts, JAK 1/3; read-out: Human IC50, IL-15 pSTAT5. Here is the method: as §1
Data set [7] deals with IFNγ induced STAT1 phosphorylation. Nature of the data set: IFNγ induced STAT1 phosphorylation in CD14+ monocytes of PBMC. Particulars: Homo sapiens, Monocyte, JAK 1/2, read-out: Human IC50, IFNγ pSTAT1. The data set is classed as cell-based. As for the experimental part:
as §1

Data set [8] relates to IL-4 induced STAT6 phosphorylation. Nature of the data set: IL-4 induced STAT6 phosphorylation in HEKa. The settings on record: Homo sapiens, JAK 1/3, read-out: Human IC50, IL-4 pSTAT6. The data set is classed as cell-based. Here is the method: as §1
In data set [9] the test system is IL-31 induced STAT3 phosphorylation. As to the kind of experiment: IL-31 induced STAT3 phosphorylation in HEKa. The format is cell-based. The settings on record: Homo sapiens, JAK 1/2, read-out: Human IC50, IL-31 pSTAT3. Here is the method:
as §1

Data set [10] relates to adjuvant induced arthritis. As to the kind of experiment: Rat adjuvant-induced arthritis (AIA) model. The data set is classed as in vivo.
For a further data set, the system named is reticulocyte deployment. As to the kind of experiment: Epo induced reticulocyte deployment assay. The format is in vivo. Particulars: rat, Epo challenge, highest concentration tested. As for the experimental part: Naïve male Lewis rats were injected intravenously with either PBS or 1000 IU of epoetin α (Procrit®, Janssen Products, LP, Horsham, PA) for two consecutive days. Reticulocytes were measured on day 4 by flow cytometry using thiozole orange as a dye as previously described.

For data set [11], the system named is CD3-/CD16+/CD56+ NK cells. As to the kind of experiment: Circulating NK cell analysis after 14 days dosing. The format is in vivo, rat. As for the experimental part:
Blood was collected and stained using BD MultiTest IMK kit (BD Biosciences, San Jose, CA) per manufacturer’s instructions. NK cell numbers were determined by using FlowJo analysis software (FlowJo, LLC, Ashland, OR) and by examining the CD3^−/CD16^+/CD56^+ population. The number of cells/μL was calculated by using the following equation: (# events in cell population/# of events in absolute bead count region) × (# beads per test/test volume), with the value beads per test indicated on the BD Trucount tube label.

The subject of another data set is IL-7 driven pSTAT5. Nature of the data set: Clinical ex vivo IL-7 stimulation of whole blood, pSTAT5. The settings on record: healthy volunteers, 12 mg of upadacitinib, 1 h post dose. The data set is classed as in vivo. As for the experimental part: Recombinant human IL-6 (400 ng/ml), or IL-7 (400 ng/ml), (R&D Systems, Minneapolis, MN) was added to blood and incubated for 10 min at 37°C. Surface antibodies were added (CD14-APC, CD3-fluorescein isothiocyanate [FITC]; BD Biosciences, San Jose, CA) and incubated on ice for an additional 20 min. Samples were lysed (Lyse/Fix, BD Biosciences, San Jose, CA) and incubated for 10 min at 37°C. Samples were washed and stored at − 70°C. For intracellular staining, samples were thawed, washed, and resuspended in BD Perm buffer III (BD Biosciences, San Jose, CA) on ice for 30 min. Samples were washed and stained with pSTAT5-PE or pSTAT3-PE (BD Biosciences, San Jose, CA) for 60 min at room temperature and then analyzed immediately on a FACSCalibur. Geometric means were determined using FlowJo analysis software.

For a further data set, the target named is cMET (Homo sapiens, UniProt P08581). As to the kind of experiment: trFRET binding kinome profiling. As for the experimental part:
JAK activity assays using isolated kinase domains in the presence of 0.1 mM ATP and trFRET kinome profiling were conducted as described previously (17).

Read-outs that look alike come from different tables or passages of the source.

cMET, sequence (P08581 25-1390): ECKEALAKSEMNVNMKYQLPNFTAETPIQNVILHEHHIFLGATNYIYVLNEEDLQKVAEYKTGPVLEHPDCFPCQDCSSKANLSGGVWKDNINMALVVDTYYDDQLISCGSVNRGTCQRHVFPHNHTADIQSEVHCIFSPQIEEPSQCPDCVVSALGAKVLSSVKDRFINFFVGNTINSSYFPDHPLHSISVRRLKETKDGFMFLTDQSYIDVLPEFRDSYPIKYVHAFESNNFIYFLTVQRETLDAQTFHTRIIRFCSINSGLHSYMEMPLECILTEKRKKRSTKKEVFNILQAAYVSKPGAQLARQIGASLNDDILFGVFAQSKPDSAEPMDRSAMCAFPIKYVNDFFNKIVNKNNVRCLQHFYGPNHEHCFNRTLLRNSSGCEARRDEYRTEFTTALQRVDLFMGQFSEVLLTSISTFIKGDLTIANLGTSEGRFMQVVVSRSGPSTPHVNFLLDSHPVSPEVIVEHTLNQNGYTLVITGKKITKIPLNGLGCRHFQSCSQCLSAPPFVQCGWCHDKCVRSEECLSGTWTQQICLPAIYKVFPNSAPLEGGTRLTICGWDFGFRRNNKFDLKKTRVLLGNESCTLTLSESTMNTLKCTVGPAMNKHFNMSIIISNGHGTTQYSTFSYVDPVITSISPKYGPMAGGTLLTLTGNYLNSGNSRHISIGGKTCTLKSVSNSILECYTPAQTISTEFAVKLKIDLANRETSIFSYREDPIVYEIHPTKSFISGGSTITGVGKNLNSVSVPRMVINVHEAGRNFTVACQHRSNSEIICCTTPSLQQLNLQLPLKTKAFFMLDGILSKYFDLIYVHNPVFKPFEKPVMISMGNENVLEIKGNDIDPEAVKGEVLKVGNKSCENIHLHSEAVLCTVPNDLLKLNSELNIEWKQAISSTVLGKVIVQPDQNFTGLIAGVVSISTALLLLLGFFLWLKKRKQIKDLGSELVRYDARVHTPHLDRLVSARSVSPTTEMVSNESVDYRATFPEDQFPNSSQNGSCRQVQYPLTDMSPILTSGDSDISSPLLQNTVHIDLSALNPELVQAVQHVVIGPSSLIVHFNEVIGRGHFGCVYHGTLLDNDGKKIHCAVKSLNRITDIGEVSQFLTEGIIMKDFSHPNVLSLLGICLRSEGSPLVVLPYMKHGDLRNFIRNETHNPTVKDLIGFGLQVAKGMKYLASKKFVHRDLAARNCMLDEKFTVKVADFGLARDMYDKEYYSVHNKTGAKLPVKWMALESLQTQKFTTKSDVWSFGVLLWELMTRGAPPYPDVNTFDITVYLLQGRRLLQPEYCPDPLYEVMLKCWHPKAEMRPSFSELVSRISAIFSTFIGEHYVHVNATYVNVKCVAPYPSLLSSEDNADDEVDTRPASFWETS

`CC[C@@H]1CN(C(=O)NCC(F)(F)F)C[C@@H]1c1cnc2cnc3[nH]ccc3n12` [upadacitinib, (3S,4R)-3-ethyl-4-(3H-imidazo [1,2-a]pyrrolo [2,3-e]pyrazin-8-yl)-N-(2,2,2-trifluoroethyl) pyrrolidine-1-carboxamide]: the IC50 stood at 11 nM in data set [1]; 78 nM in [2]; 1.6 nM in [3]; 649 nM in [4]; 13 nM in data set [5] (Homo sapiens, T-cell); 10 nM in [5]. Moreover, the IC50 was 22 nM in data set [6]; 19 nM in data set [7]; 2 nM in [8]; 3 nM in data set [9]; above 10000 nM at cMET. In addition, the Histological endpoints result in [10] (3 and 10 mg/kg dose groups, data not shown) is “improved synovial hypertrophy, inflammation, cartilage damage and bone erosion”. Besides, the “Reduction in paw swelling at clinical AUC exposures” value in data set [10] (exposures for 6 mg BID and 12 mg BID clinical doses of upadacitinib) was above 90%. In addition, the “AUC60, AUC0-12 drug concentration necessary to achieve 60% inhibition of paw swelling” value in data set [10] (oral BID) is 83 ng·h/mL. In data set [10] (oral, dosed from day 7), the “Effect on paw swelling” value was “dose and exposure dependent reductions in paw swelling”. Besides, the “Maximal inhibition of reticulocyte deployment” value in the data set with reticulocyte deployment was ~ 40%. For the same compound, the “AUC60 for decrease of circulating NK cell numbers” value in data set [11] (naive rats dosed orally for 14 days) was determined as 480 ng·h/mL. Further, the “Decrease in circulating NK cells at AUC60” value in [11] (rat, at AUC60 of paw swelling) turned out to be 25%. The “Inhibition of IL-7 driven pSTAT5” value in the data set with IL-7 driven pSTAT5 is ~ 70%.
